These results are taken from patent publication US9771369B2, “Compounds and methods for kinase modulation, and indications therefor” (Plexxikon Inc., priority 2014, dated 2017).

In general, IC50 refers to the concentration that inhibits the measured activity by half. Lower therefore signals greater potency in that assay.

In this assay the target is c-Kit kinase (Homo sapiens (Human), UniProt P10721). In words: c-Kit biochemical assay (AlphaScreen kinase activity). In short, it runs like this: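 IC50 values come from 8-point, 1:3 compound titrations measuring inhibition of peptide phosphorylation by c-Kit (commercial or His-tagged E. coli-expressed) over 1 h at room temperature, read by AlphaScreen PY30/streptavidin beads. Low-ATP version: 10 μM ATP, 100 nM biotin-(E4Y)3; high-ATP version: 100 μM ATP, 30 nM biotin-(E4Y)10.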
Chain of c-Kit kinase (P10721 26-976): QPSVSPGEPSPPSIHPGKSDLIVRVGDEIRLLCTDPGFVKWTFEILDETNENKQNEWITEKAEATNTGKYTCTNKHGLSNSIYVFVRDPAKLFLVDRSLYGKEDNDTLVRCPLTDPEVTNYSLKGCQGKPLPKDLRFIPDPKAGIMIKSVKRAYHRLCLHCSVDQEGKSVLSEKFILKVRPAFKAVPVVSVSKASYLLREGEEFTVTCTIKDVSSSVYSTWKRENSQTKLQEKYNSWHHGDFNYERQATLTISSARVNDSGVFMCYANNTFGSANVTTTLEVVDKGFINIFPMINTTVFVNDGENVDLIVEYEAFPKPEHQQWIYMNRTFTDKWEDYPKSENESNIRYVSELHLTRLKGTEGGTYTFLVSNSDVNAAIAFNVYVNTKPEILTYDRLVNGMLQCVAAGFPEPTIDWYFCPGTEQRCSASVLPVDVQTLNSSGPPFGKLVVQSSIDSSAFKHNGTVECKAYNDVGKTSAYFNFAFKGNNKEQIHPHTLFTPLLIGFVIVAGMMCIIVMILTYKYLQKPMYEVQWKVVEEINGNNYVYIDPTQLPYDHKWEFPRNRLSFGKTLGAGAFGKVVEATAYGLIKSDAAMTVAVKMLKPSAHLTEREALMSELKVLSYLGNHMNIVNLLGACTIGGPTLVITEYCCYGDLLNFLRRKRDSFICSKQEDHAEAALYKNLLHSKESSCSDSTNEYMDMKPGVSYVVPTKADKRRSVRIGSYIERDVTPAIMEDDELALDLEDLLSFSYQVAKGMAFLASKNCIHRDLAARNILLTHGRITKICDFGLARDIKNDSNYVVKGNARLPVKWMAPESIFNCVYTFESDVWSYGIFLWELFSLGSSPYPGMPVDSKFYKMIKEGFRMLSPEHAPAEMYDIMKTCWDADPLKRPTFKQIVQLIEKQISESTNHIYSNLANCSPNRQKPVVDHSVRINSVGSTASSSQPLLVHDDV
Compound `CCOc1ccc(-c2[nH]c(C3(C)CCN(c4ncnc5[nH]c(-c6cnn(C(F)F)c6)cc45)CC3)nc2C)cc1` [P-3170, 6-[1-(difluoromethyl)pyrazol-4-yl]-4-[4-[5-(4-ethoxyphenyl)-4-methyl-1H-imidazol-2-yl]-4-methyl-1-piperidyl]-7H-pyrrolo[2,3-d]pyrimidine] displayed an IC50 of 0.0001 to 1 µM.
`Fc1ccc(-c2cc3c(N4CCC(c5nnc(-c6cccc(OC(F)F)c6)[nH]5)CC4)ncnc3[nH]2)cc1` [P-3204, 4-[4-[5-[3-(difluoromethoxy)phenyl]-4H-1,2,4-triazol-3-yl]-1-piperidyl]-6-(4-fluorophenyl)-7H-pyrrolo[2,3-d]pyrimidine] gave an IC50 of 10 to 300 µM.
The compound `COc1cc(-c2cc3c(N4CCC(c5nnc(-c6ccc(F)cc6)[nH]5)CC4)ncnc3[nH]2)ccn1` [P-3205, 4-[4-[5-(4-fluorophenyl)-4H-1,2,4-triazol-3-yl]-1-piperidyl]-6-(2-methoxy-4-pyridyl)-7H-pyrrolo[2,3-d]pyrimidine] had an IC50 of 10 to 300 µM.
